Measurements: patent publication US20050170485A1, “Culture having phenol oxidase-like activity” (priority 2002, published 2005)

Experiments:
Type in all cases: biochemical
[1] = tested on: culture of Flammulina velutipes strain IFO 30601; assay: Decolorization / oxidative degradation / oxidative polymerization of pigments and lignin by the culture; details: for specificity of the culture compared with bilirubin oxidase from the genus Myrothecium: Table 3; for reaction of the substrate catalyzed by the culture (in words): neutral conditions; for Specific Activity, Culture: reaction pH 7.0, 25° C., without sign = degradation or decolorization, minus = polymerization activity
Description: The decolorization activity on the respective dyes can be evaluated by measuring as the dye, Evans' Blue, Acid Blue 80, Remazol Brilliant Blue R and Acid Violet 17 in the step c) for their absorbance at 600 nm, 600 nm, 600 nm and 550 nm respectively. In addition, regarding the lignin, the oxidative degradation activity on the respective dyes can be evaluated by measuring the absorbance at 450 nm in the step c). The oxidative polymerization activity on the respective dyes can be evaluated by measuring as the dye, Indigo Carmine and Natural Orange 6 in the step c) for their absorbance at 600 nm and 450 nm respectively.
Next, chemical changes of various substrates generated by the action of the culture for the substrate specificity of the culture obtained in (2) of Example 1 was examined by determining a change in the absorbance of the buffer containing each substrate.
As the substrate, commercially available pigments (Evans' Blue, Acid Blue 80, Remazol Brilliant Blue R, Indigo Carmine, Acid Violet 17, Natural Orange) and lignin (trade name: Lignin Alkali, manufactured by Tokyo Kasei) were used.
(§1) Concretely, 950 μl of 105.3 mM sodium phosphate buffer (pH 7.0) containing a substrate adjusted to have a final concentration as shown in Table 2 was pre-incubated at 25° C. for 5 minutes. Next, 50 μl of the culture solution was added to the resulting product, and thereafter, the mixture was reacted in a cuvette. The absorbance for each substrate was determined at a measuring wavelength with a spectrophotometer (manufactured by Shimadzu Corporation, trade name: UV-2450). For the comparison, the examination was also made for bilirubin oxidase from a strain belonging to the genus Myrothecium in the same manner by replacing the above-mentioned buffer with 105.3 mM Tris-HCl buffer (pH 8.0).
(§2) Here, 1 U (unit) of the activity was defined as an amount for increasing the absorbance by 1 per one minute. In Table 3, a specific activity shown without a sign indicates degradation activity or decolorization activity, and a specific activity shown with—(minus) indicates polymerization activity.

[2] = biological target: T1, bilirubin oxidase from a strain belonging to the genus Myrothecium (Albifimbria verrucaria, UniProt Q12737); assay: Decolorization / degradation / polymerization of pigments and lignin by bilirubin oxidase (comparison); details: reaction pH 8.0; without sign = degradation or decolorization, minus = polymerization activity
T1 sequence (Q12737 39-572): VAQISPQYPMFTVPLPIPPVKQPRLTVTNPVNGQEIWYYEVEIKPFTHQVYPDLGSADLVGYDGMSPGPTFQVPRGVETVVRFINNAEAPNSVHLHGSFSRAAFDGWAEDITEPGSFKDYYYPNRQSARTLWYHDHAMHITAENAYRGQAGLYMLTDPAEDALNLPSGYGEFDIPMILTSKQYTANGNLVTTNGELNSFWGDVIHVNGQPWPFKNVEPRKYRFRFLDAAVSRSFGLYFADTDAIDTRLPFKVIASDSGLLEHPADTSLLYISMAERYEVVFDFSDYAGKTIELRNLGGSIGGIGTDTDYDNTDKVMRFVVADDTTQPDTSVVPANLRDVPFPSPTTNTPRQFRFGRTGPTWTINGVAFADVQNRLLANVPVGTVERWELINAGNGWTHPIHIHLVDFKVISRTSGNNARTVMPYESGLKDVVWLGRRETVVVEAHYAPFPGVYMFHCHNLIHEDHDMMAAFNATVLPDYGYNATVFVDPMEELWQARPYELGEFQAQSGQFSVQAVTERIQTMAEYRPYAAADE
Protocol: as §1, §2

[3] = biological target: T2, bilirubin oxidase from the strain belonging to the genus Myrothecium (Albifimbria verrucaria, UniProt Q12737); assay: Direct oxidation reaction by bilirubin oxidase (comparison); design: concentration or dose not given beside the values; details: reaction pH 7.0; 2-chloro 1,4-phenylenediamine = 100
T2 sequence (Q12737 39-572): T1 sequence (Q12737 39-572)
Protocol: (§3) Concretely, 180 μl of 0.89 mM sodium phosphate buffer (pH 7.0) containing […] substrate was pre-incubated in wells of a 96-well microplate [manufactured by Corning, Costor (registered trademark) 3368] at 25° C. for 1 minute. Next, 20 μl of the above-mentioned culture solution was added to the resulting mixture. A change in absorbance at 490 nm, 450 nm or 405 nm was determined for the resulting product, depending on the substrate. Here, 1 U (unit) of the activity regarding the direct oxidative reaction was defined as an amount for increasing the absorbance by 1 per one minute.
(§4) In addition, for the comparison, the substrate specificities at pH 7.0 for laccase from Japanese lacquer and bilirubin oxidase from the strain belonging to the genus Myrothecium were also examined in the same manner.
The relative activity (%) for each substrate is shown in Table 7, in which the measured value for a case where a representative chemical dye 2-chloro 1,4-phenylenediamine was used as a substrate is 100.

[4] = tested on: culture of Flammulina velutipes strain IFO 30601; assay: Substrate specificity of the culture (phenol oxidase-like activity, Table 1); details: pH 7.0; determined wavelength per substrate (Table 1)
[5] = biological target: T3, bilirubin oxidase from the strain of the genus Myrothecium (Albifimbria verrucaria, UniProt Q12737); assay: Oxidative coupling reaction with 4-aminoantipyrine by bilirubin oxidase (comparison); details: reaction pH 8.0, substrate 2.0 mM
T3 sequence (Q12737 39-572): T1 sequence (Q12737 39-572)
Protocol: (§5) Concretely, 190 μl of 105.3 mM phosphate buffer (pH 7.0) containing 0.4 μmol of a substrate and 4.0 μmol of 4-aminoantipyrine was pre-incubated in wells of a 96-well microplate [manufactured by Corning, Costor (registered trademark) 3368] at 25° C. for 1 minute. Next, 10 μl of the above-mentioned culture solution was added to the resulting mixture, and thereafter, the mixture was incubated for 1 hour. A change in absorbance at 490 nm or 450 nm was determined for the resulting product. One unit (U) of the activity regarding the oxidative coupling reaction was defined as an amount for increasing the absorbance by 1 per one minute.
In addition, for the comparison, the examination was made in the same manner for bilirubin oxidase from the strain of the genus Myrothecium except that the above-mentioned buffer was replaced with 105.3 mM Tris-HCl buffer (pH 8.0).

[6] = tested on: culture of Flammulina velutipes strain IFO 30601; assay: Direct oxidation reaction by the culture
Protocol: Further, the direct oxidation reaction of the culture obtained in the above-mentioned example was determined by using color development due to oxidative polymerization of a substrate generated by the direct action of the culture of the present invention on the substrate as an index.
As the substrates, there were used diaminophenolic compounds (2-chloro 1,4-phenylenediamine, p-phenylenediamine, 2,5-diaminotoluene, N-phenyl-p-phenylenediamine, toluylene-3,4-diamine, m-phenylenediamine), aminophenolic compounds (o-aminophenol, m-aminophenol, 5-amino-o-cresol, p-aminophenol, p-methylaminophenol), and phenolic compounds (2,6-dimethoxyphenol, catechol, resorcinol, hydroquinone, pyrogallol, gallic acid, propyl gallate, 1-naphthol, […], 2,3,4-trihydroxybenzophenone, 2,3,4,4-tetrahydroxybenzophenone). As to a substrate hardly soluble in water, there was used one obtained by dissolving the substrate in a small amount of dimethyl sulfoxide and diluting the resulting solution with deionized distilled water to a desired concentration. In Table 6, %” indicates volume/volume %.
as §3

[7] = tested on: culture of Flammulina velutipes strain IFO 30601; assay: Oxidative coupling reaction with 4-aminoantipyrine by the culture
Protocol: Next, the oxidative coupling reaction of the culture obtained in (2) in Example 1 mentioned above was determined by using color development as an index by the oxidative condensation of the substrate (hydrogen donor) with 4-aminoantipyrine, catalyzed by the culture of the present invention.
As the hydrogen donors, there were used phenolic compounds (phenol, 2-methoxyphenol, 2,6-dimethoxyphenol, catechol, resorcinol, hydroquinone, pyrogallol, gallic acid, propyl gallate, 1-naphthol, catechin), aminophenolic compounds (o-aminophenol, m-aminophenol, p-aminophenol), diaminophenolic compounds (o-phenylenediamine, m-phenylenediamine, p-phenylenediamine), and heterocyclic compounds (5-hydroxyindole, 2,6-diaminopyridine).
The above-mentioned culture solution was added to a reaction system containing 4-aminoantipyrine and an optional hydrogen donor. Thereafter, the activity of the culture of the present invention was assayed by determining a change in absorbance at 490 nm for the phenolic compound, the diaminophenolic compound and the heterocyclic compound, or determining a change in absorbance at 450 nm for the aminophenolic compound. As to a substrate hardly soluble in water, there was used one obtained by dissolving the substrate in a small amount of dimethyl sulfoxide and diluting the resulting solution with deionized water to a desired concentration. In Table 4, DMSO is an abbreviation for dimethyl sulfoxide.
as §5

[8] = tested on: laccase from Japanese lacquer; assay: Direct oxidation reaction by laccase (comparison); details: reaction pH 7.0; 2-chloro 1,4-phenylenediamine = 100
Protocol: Next, 20 μl of the above-mentioned culture solution was added to the resulting mixture. A change in absorbance at 490 nm, 450 nm or 405 nm was determined for the resulting product, depending on the substrate. Here, 1 U (unit) of the activity regarding the direct oxidative reaction was defined as an amount for increasing the absorbance by 1 per one minute.
as §4

[9] = pH 7.0, relative activities of Table 7

Row | Compound | specificity of the culture compared with bilirubin oxidase from the genus Myrothecium [1] | reaction of the substrate catalyzed by the culture (in words) [1] | Specific Activity, Culture [1] [U/mg Protein] | Specific Activity, Bilirubin Oxidase from Strain Belonging to Genus Myrothecium [2] [U/mg Protein] | also measured
1 | CCN(CC)c1ccc(C(=C2C=CC(=[N+](CC)Cc3cccc(S(=O)(=O)[O-])c3)C=C2)c2ccc(N(CC)Cc3cccc(S(=O)(=O)[O-])c3)cc2)cc1.[Na+] [Acid Violet 17] | significantly differs | oxidative decolorization reaction | 0.12 | −0.40 | 
2 | Cc1cc(-c2ccc(/N=N/c3ccc4c(S(=O)(=O)[O-])cc(S(=O)(=O)[O-])c(N)c4c3O)c(C)c2)ccc1/N=N/c1ccc2c(S(=O)(=O)[O-])cc(S(=O)(=O)[O-])c(N)c2c1O.[Na+].[Na+].[Na+].[Na+] [Evans' Blue] |  |  | 0.32 | 1.22 | 
3 | O=C1/C(=C2\Nc3ccc(S(=O)(=O)[O-])cc3C2=O)Nc2ccc(S(=O)(=O)[O-])cc21.[Na+].[Na+] [Indigo Carmine] | significantly differs | oxidative polymerization reaction | −0.22 | 0.46 | 
4 | Cc1cc(C)c(S(=O)(=O)[O-])c(C)c1Nc1ccc(Nc2c(C)cc(C)c(S(=O)(=O)[O-])c2C)c2c1C(=O)c1ccccc1C2=O.[Na+].[Na+] [Acid Blue 80] |  |  | 0.30 | 0.39 | 
5 | Nc1c(S(=O)(=O)[O-])cc(Nc2cccc(S(=O)(=O)CCOS(=O)(=O)[O-])c2)c2c1C(=O)c1ccccc1C2=O.[Na+].[Na+] [Remazol Brilliant Blue R] | significantly differs | strongly catalyzed | 0.97 | −0.18 | 
6 | O=C1C=C(O)C(=O)c2ccccc21 [Natural Orange 6] |  | oxidative polymerization reaction | −0.18 | −0.11 | 
7 | Oc1ccccc1O [Catechol] |  |  |  |  | Relative Activity, Bilirubin Oxidase from Strain Belonging to Genus Myrothecium (direct oxidation) [3]: 5%; U (activity of the culture on the substrate) [4]: 0.029 U; Specific Activity, Bilirubin Oxidase from Strain Belonging to Genus Myrothecium (oxidative coupling with 4-aminoantipyrine) [5]: 16.0 U/mg Protein; activity of the culture compared with bilirubin oxidase from the genus Myrothecium, direct oxidation [6, 9]: higher activity; activity of the culture compared with laccase from Japanese lacquer, direct oxidation [6, 9]: even higher activity; Relative Activity, Culture (direct oxidation) ([6]; reaction pH 7.0, 2-chloro 1,4-phenylenediamine = 100): 21%; activity of the culture for the substrate in words, oxidative coupling reaction ([7]; pH 7.0): especially high activity; Specific Activity, Culture (oxidative coupling with 4-aminoantipyrine) ([7]; reaction pH 7.0, 25° C., substrate 2.0 mM): 23.3 U/mg Protein; Relative Activity, Laccase from Japanese Lacquer (direct oxidation) [8]: 2%
